We go through 35 compounds from patent publication US11384055B2 (BIOMARIN PHARMACEUTICAL INC., priority 2017, dated 2022).

Structures are written as SMILES. Bounds are passed on as bounds.

In the experiment the target is T1, Human GO (Homo sapiens, UniProt Q9UJM8).
T1 construct: purchased Novus Biologicals NBP1-72412
T1 sequence (Q9UJM8 1-370): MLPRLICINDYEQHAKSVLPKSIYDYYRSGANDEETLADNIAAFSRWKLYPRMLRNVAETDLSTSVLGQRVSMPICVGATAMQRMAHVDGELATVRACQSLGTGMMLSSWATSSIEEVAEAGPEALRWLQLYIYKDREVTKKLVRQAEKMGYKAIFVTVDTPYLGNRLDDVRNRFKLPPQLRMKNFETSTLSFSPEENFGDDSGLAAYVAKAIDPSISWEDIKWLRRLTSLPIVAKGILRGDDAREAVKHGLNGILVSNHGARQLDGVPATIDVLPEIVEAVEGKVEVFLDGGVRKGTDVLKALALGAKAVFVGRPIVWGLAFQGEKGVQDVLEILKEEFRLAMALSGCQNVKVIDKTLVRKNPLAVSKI
As to the kind of experiment: GO enzymatic assay (coupled fluorescence/HRP assay, glycolate substrate). Format: biochemical. The following applies: Table 2; read-out: Range (range of IC50 values calculated from the enzymatic assays). Put shortly: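 Coupled HRP/fluorescence read-out of glycolate oxidation by human GO in 50 mM potassium phosphate buffer (pH 7). Inhibitors added across a concentration range.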
By IC50 is commonly meant the concentration that gives 50% inhibition. In the case of `N#Cc1ccc(-c2ccc(Oc3nn[nH]c3C(=O)O)cc2)cc1` [Compound 225, 4-((4′-cyano-[1,1′-biphenyl]-4-yl)oxy)-1H-1,2,3-triazole-5-carboxylic acid], the IC50 was < 100 nM.

For the compound `CC(C)N1CCc2ccc(Oc3nn[nH]c3C(=O)O)cc2C1` [Compound 226, 4-((2-isopropyl-1,2,3,4-tetrahydroisoquinolin-7-yl)oxy)-1H-1,2,3-triazole-5-carboxylic acid 2,2,2-trifluoroacetate], the IC50 was 1000 to 10000 nM.

Regarding `O=C(O)c1[nH]nnc1OCc1ccc2cc(Cl)ccc2c1` [Compound 227, 4-((6-chloronaphthalen-2-yl)methoxy)-1H-1,2,3-triazole-5-carboxylic acid 2,2,2-trifluoroacetate], the IC50 was < 100 nM. With `O=C(O)c1[nH]nnc1Oc1ccc(-c2cccc(C3CCCCC3)c2)cc1` [Compound 228, 4-((3′-cyclohexyl-[1,1′-biphenyl]-4-yl)oxy)-1H-1,2,3-triazole-5-carboxylic acid] the figure was < 100 nM; with `O=C(O)c1c(Oc2ccc(Cl)c(Cl)c2)nnn1COC(=O)C1CCCCC1` [Compound 229, 1-(((cyclohexanecarbonyl)oxy)methyl)-4-(3,4-dichlorophenoxy)1H-1,2,3-triazole-5-carboxylic acid], 100 to 1000 nM; with `COCCOc1cccc(-c2ccc(Oc3nn[nH]c3C(=O)O)cc2)c1` [Compound 230, 4-((3′-(2-methoxyethoxy)-[1,1′-biphenyl]-4-yl)oxy)-1H-1,2,3-triazole-5-carboxylic acid], < 100 nM. As for `O=C(O)c1[nH]nnc1Oc1ccc2c(c1)OCCO2` [Compound 231, 4-((2,3-dihydrobenzo[b][1,4]dioxin-6-yl)oxy)-1H-1,2,3-triazole-5-carboxylic acid 2,2,2-trifluoroacetate], the IC50 is < 100 nM.

Consider `O=C(O)c1[nH]nnc1Oc1ccc(-c2cccc(OCC3CC3)c2)cc1` [Compound 232, 4-((3′-(cyclopropylmethoxy)-[1,1′-biphenyl]-4-yl)oxy)-1H-1,2,3-triazole-5-carboxylic acid], for which the IC50 was < 100 nM.

On to `CC(=O)N1CCN(c2cccc(-c3ccc(Oc4nn[nH]c4C(=O)O)cc3)c2)CC1` [Compound 233, 4-((3′-(4-acetylpiperazin-1-yl)-[1,1′-biphenyl]-4-yl)oxy)-1H-1,2,3-triazole-5-carboxylic acid 2,2,2-trifluoroacetate], for which the IC50 is < 100 nM.

Consider `COCCOc1ccc(-c2ccc(Oc3nn[nH]c3C(=O)O)cc2)cc1` [Compound 234, 4-((4′-(2-methoxyethoxy)-[1,1′-biphenyl]-4-yl)oxy)-1H-1,2,3-triazole-5-carboxylic acid], for which the IC50 was < 100 nM. The result for `CC(=O)OCOC(=O)c1[nH]nnc1Oc1ccc2cc(Cl)ccc2c1` [Compound 235, acetoxymethyl 4-((6-chloronaphthalen-2-yl)oxy)-1H-1,2,3-triazole-5-carboxylate] reads < 100 nM; that for `O=C(O)c1[nH]nnc1Oc1ccc2cc(OC(F)F)ccc2c1` [Compound 236, 4-((6-(difluoromethoxy)naphthalen-2-yl)oxy)-1H-1,2,3-triazole-5-carboxylic acid], < 100 nM. With `O=C(O)c1[nH]nnc1OC1CCc2cc(F)c(F)cc2C1` (centres unmarked) [Compound 237, 4-((6,7-difluoro-1,2,3,4-tetrahydronaphthalen-2-yl)oxy)-1H-1,2,3-triazole-5-carboxylic acid] the figure was < 100 nM; with `O=C(O)c1[nH]nnc1Oc1ccc(-c2cccc(C3CCOCC3)c2)cc1` [Compound 238, 4-((3′-(tetrahydro-2H-pyran-4-yl)-[1,1′-biphenyl]-4-yl)oxy)-1H-1,2,3-triazole-5-carboxylic acid 2,2,2-trifluoroacetate], < 100 nM; with `CC(C)C(=O)OCOC(=O)c1[nH]nnc1Oc1ccc2cc(Cl)ccc2c1` [Compound 239, (isobutyryloxy)methyl 4-((6-chloronaphthalen-2-yl)oxy)-1H-1,2,3-triazole-5-carboxylate], 100 to 1000 nM.

With `CC(C)(C)OC(=O)N1CCCCC1C(=O)OCn1nnc(Oc2ccc(Cl)c(Cl)c2)c1C(=O)O` (centres unmarked) [Compound 240, 1-(((1-(tert-butoxycarbonyl)piperidine-2-carbonyl)oxy)methyl)-4-(3,4-dichlorophenoxy)-1H-1,2,3-triazole-5-carboxylic acid], the IC50 was 1000 to 10000 nM.

Take `O=C(O)c1[nH]nnc1OC1Cc2cc(Cl)c(Cl)cc2C1` [Compound 241, 4-((5,6-dichloro-2,3-dihydro-1H-inden-2-yl)oxy)-1H-1,2,3-triazole-5-carboxylic acid 2,2,2-trifluoroacetate]: the IC50 was < 100 nM. As to `O=C(O)c1[nH]nnc1Oc1ccc(-c2ccc(C3CCOCC3)cc2)cc1` [Compound 242, 4-((4′-(tetrahydro-2H-pyran-4-yl)-[1,1′-biphenyl]-4-yl)oxy)-1H-1,2,3-triazole-5-carboxylic acid], the IC50 was < 100 nM. With `O=C(O)c1[nH]nnc1CSc1ccc(Cl)c(Cl)c1` [Compound 243, 4-(((3,4-dichlorophenyl)thio)methyl)-1H-1,2,3-triazole-5-carboxylic acid] the figure was < 100 nM; with `CC(C)C(=O)OCOC(=O)c1[nH]nnc1Sc1ccc(-c2ccc(N3CCCCC3)cc2)cc1` [Compound 244, (isobutyryloxy)methyl 4-((4′-(piperidin-1-yl)-[1,1′-biphenyl]-4-yl)thio)-1H-1,2,3-triazole-5-carboxylate], 1000 to 10000 nM; with `CC(C)N1CCCc2ccc(Oc3nn[nH]c3C(=O)O)cc21` [Compound 245, 4-((1-isopropyl-1,2,3,4-tetrahydroquinolin-7-yl)oxy)-1H-1,2,3-triazole-5-carboxylic acid 2,2,2-trifluoroacetate], 1000 to 10000 nM.

With `CN1CCN(c2cccc(-c3ccc(Oc4nn[nH]c4C(=O)O)cc3)c2)CC1` [Compound 246, 4-((3′-(4-methylpiperazin-1-yl)-[1,1′-biphenyl]-4-yl)oxy)-1H-1,2,3-triazole-5-carboxylic acid 2,2,2-trifluoroacetate], the IC50 is 100 to 1000 nM. For the compound `O=C(O)c1[nH]nnc1Sc1ccc(-c2cccc(C3CCCCC3)c2)cc1` [Compound 247, 4-((3′-cyclohexyl-[1,1′-biphenyl]-4-yl)thio)-1H-1,2,3-triazole-5-carboxylic acid], the IC50 was < 100 nM. The result for `O=C(OCOC(=O)c1[nH]nnc1Oc1ccc2cc(Cl)ccc2c1)c1ccccc1` [Compound 249, (benzoyloxy)methyl 4-((6-chloronaphthalen-2-yl)oxy)-1H-1,2,3-triazole-5-carboxylate] reads 1000 to 10000 nM; that for `O=C(O)c1[nH]nnc1Oc1ccc(-c2ccc3cccnc3c2)cc1` [Compound 250, 4-(4-(quinolin-7-yl)phenoxy)-1H-1,2,3-triazole-5-carboxylic acid 2,2,2-trifluoroacetate], < 100 nM; that for `CC(C)(C)C(=O)OCOC(=O)c1[nH]nnc1Oc1ccc2cc(Cl)ccc2c1` [Compound 251, (pivaloyloxy)methyl 4-((6-chloronaphthalen-2-yl)oxy)-1H-1,2,3-triazole-5-carboxylate], 1000 to 10000 nM.

Consider `CC(C)C(=O)OCOC(=O)c1[nH]nnc1Oc1ccc2c(c1)CCCC2` [Compound 252, (isobutyryloxy)methyl 4-((5,6,7,8-tetrahydronaphthalen-2-yl)oxy)-1H-1,2,3-triazole-5-carboxylate], for which the IC50 was 100 to 1000 nM.

For the compound `O=C(O)c1[nH]nnc1Oc1cccc(OC2CC2)c1` [Compound 253, 4-(3-cyclopropoxyphenoxy)-1H-1,2,3-triazole-5-carboxylic acid 2,2,2-trifluoroacetate], the IC50 is < 100 nM. The result for `O=C(O)c1[nH]nnc1Oc1ccc(Cl)c(OC(F)(F)F)c1` [Compound 254, 4-(4-chloro-3-(trifluoromethoxy)phenoxy)-1H-1,2,3-triazole-5-carboxylic acid] reads < 100 nM. With `CC(=O)NCCOc1ccc(-c2ccc(Oc3nn[nH]c3C(=O)O)cc2)cc1` [Compound 255, 4-((4′-(2-acetamidoethoxy)-[1,1′-biphenyl]-4-yl)oxy)-1H-1,2,3-triazole-5-carboxylic acid] the figure was < 100 nM.

`CC(C)C(=O)OCOC(=O)c1[nH]nnc1OC1CCc2cc(Cl)c(Cl)cc2C1` (centres unmarked) [Compound 256, (isobutyryloxy)methyl 4-((6,7-dichloro-1,2,3,4-tetrahydronaphthalen-2-yl)oxy)-1H-1,2,3-triazole-5-carboxylate]: the IC50 was 100 to 1000 nM.

As to `O=C(O)c1[nH]nnc1Oc1ccc(-c2ccc3cnccc3c2)cc1` [Compound 257, 4-(4-(isoquinolin-6-yl)phenoxy)-1H-1,2,3-triazole-5-carboxylic acid], the IC50 was < 100 nM. With `CC(C)(C)C(=O)OCOC(=O)c1[nH]nnc1OC1CCc2cc(Cl)c(Cl)cc2C1` (centres unmarked) [Compound 258, (pivaloyloxy)methyl 4-((6,7-dichloro-1,2,3,4-tetrahydronaphthalen-2-yl)oxy)-1H-1,2,3-triazole-5-carboxylate] the figure was 1000 to 10000 nM; with `CC(=O)NCCOc1cccc(-c2ccc(Oc3nn[nH]c3C(=O)O)cc2)c1` [Compound 259, 4-((3′-(2-acetamidoethoxy)-[1,1′-biphenyl]-4-yl)oxy)-1H-1,2,3-triazole-5-carboxylic acid], < 100 nM; with `O=C(O)c1[nH]nnc1OC1CCN(c2ccc3cnccc3c2)CC1` [Compound 260, 4-((1-(isoquinolin-6-yl)piperidin-4-yl)oxy)-1H-1,2,3-triazole-5-carboxylic acid 2,2,2-trifluoroacetate], 100 to 1000 nM.
